The target in assay [1] is T1, CHFR (Homo sapiens, UniProt Q96EP1).
T1 sequence (Q96EP1 1-664): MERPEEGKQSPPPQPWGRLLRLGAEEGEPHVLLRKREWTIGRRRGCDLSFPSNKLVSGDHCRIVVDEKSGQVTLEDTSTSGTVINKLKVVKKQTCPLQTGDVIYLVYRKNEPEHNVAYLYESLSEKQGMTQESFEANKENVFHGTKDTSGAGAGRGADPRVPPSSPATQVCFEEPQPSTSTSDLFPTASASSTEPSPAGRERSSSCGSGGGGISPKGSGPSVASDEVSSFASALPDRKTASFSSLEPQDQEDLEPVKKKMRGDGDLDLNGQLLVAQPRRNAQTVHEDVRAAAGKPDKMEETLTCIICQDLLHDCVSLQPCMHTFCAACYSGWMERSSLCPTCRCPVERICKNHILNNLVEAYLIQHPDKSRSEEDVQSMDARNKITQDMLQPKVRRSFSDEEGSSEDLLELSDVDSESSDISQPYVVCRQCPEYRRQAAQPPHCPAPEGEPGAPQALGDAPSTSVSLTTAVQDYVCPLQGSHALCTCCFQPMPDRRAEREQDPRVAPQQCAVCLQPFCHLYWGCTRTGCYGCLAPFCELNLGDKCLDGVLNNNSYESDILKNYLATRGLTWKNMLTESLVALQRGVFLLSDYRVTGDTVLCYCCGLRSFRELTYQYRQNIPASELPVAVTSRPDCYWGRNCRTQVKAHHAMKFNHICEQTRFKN
The experiment in a line: Nuclear localization of CHFR (staining) in A549 cells with MG-132. The arrangement: endogenous in cells; host or cells: A549. The following applies: A3 in combination with MG-132, A549 cells. It is filed as cell-based. As to the method:
(§1) HEK293 cells were stably transfected with the pDEST27-AR-CHFR construct. Deletion of the RING domain in this construct leads to both stable CHFR and PARP1 expression that is unaltered by treatment with increasing concentrations of ‘A3’ for 16 hours. Nonetheless, the interaction between glutathione-affinity purified CHFR-ΔR and PARP1 was decreased by ‘A3’ in a dose dependent fashion. A549 cells were incubated for 16.5 hrs with MG132 and indicated A3 concentration for 16 hrs. At 10 uM A3 concentration CHFR staining is diminished in the nucleus Cells are stained with CHFR.
(§2) In an attempt to generate possible lead compounds for the pharmacologic inhibition of the CHFR-PARP1 interaction, a high throughput computational screen of 5,256,508 chemical structures in the MCULE database of purchasable compounds using the AutoDockVina algorithm against the published crystal structure of the CHFR-PBZ domain was performed. The 10 most promising ‘hits’ based on Autodock Vina docking scores (<−9.7) were selected for further characterization. Commercially available compounds were tested for their impact on nuclear CHFR levels (FIG. 3A). […] The impact of the above referenced compounds on the PARP1/CHFR interaction were evaluated. HEK293 cells were transfected with GST tagged PARP1 and the interaction with CHFR determined in pull down assays for those 4 compounds. […]

In assay [2] the target is T1, CHFR. The experiment in a line: CHFR protein levels in A549 nuclear extracts. Format: cell-based. Also on record: endogenous in cells; host or cells: A549. As to the method:
as §1, §2

The test system of assay [3] is A549 cells. The experiment in a line: Cell viability assay, A3 with docetaxel. It is filed as cell-based.
Assay [4] deals with T1, CHFR. Put plainly: CHFR immunohistochemistry in A549 tumor xenografts. It is filed as in vivo, nude mice. Also on record: endogenous in cells; host or cells: A549 cells grown as flank xenografts in nude mice. The following applies: single ip injection 10 mg/kg. As to the method:
4 hrs after i.p. injection a significant reduction in nuclear CHFR staining was observed, indicating an in vivo reproducible pharmacodynamic effect of ‘A3’.
‘A3’ is capable of disrupting the interaction between CHFR and PARP1 in vitro, leading to a depletion of CHFR expression and to sensitization towards the cytotoxic effects of taxanes. The impact of ‘A3’ administration on lung tumor xenografts was evaluated. A549 NSCLC cells were injected into the flank of nude mice and allowed to establish for approximately 14 days. Once tumors had reached a volume about 100 mm3, mice received a single ip injection of ‘A3’ at 10 mg/kg. Mice were then euthanized at 1, 2, 4 and 24 hours after and CHFR in the xenografts was analyzed by immunohistochemistry (FIG. 5A).

The next assay concerns CHFR-PARP1 interaction. The experiment in a line: Glutathione affinity purification of Ring-domain deleted ΔR-CHFR and PARP1 in HEK293 cells. Format: cell-based. The following applies: increasing concentrations, 16 hours, ΔR-CHFR construct. The method, then:
as §1, §2

The subject of assay [5] is A549 cells. Put plainly: Colony formation assays in A549 cells transfected with shRNA. Format: cell-based. The method, then: Various cell lines of different tissues of origin and with different CHFR expression status were exposed to 1 hour of docetaxel and 72 hours of ‘A3’. Effects were defined as 1−colony count (treatment)/colony count (control). The nature of the interaction between the two compounds was analyzed by the Bliss additivity method. […] For subsequent colony formation assays, cell lines were characterized into CHFR expressing vs. CHFR deficient cell lines by Western-Blot.
FIG. 4D knock-down of either CHFR or PARP1 in A549 cells alleviates the synergy that is observed in A549 cells transfected with scrambled shRNA. (*=synergy)
Finally, colony formation assays were performed on a panel of cell lines of different cancer types such as lung-, breast-, and colon cancer.

A further assay has as its target PARP1 (Homo sapiens, UniProt P09874). The experiment in a line: In vitro parylation studies. Format: biochemical.
The test system of another assay is H460 cell line. The experiment in a line: Tumor growth in H460 mouse xenografts. It is filed as in vivo, nude mice. The method, then:
Pharmacokinetics of A3 were performed at various time points after iv and oral administration of a single dose of ‘A3’ at 10 mg/kg. 2.5×10^5 H460 cells were transplanted into the flank of nude mice were. 5 days after transplant, I.P. injection of DMSO, A3, docetaxel, or combination commenced. Explanted tumors are smallest in mice that were treated with combination therapy.
The in-vivo effects of ‘A3’, docetaxel and the combination on tumor growth in mouse xenografts, who were previously injected with the H460 cell line were evaluated.

Sequence of PARP1 (P09874 whole entry, species assumed): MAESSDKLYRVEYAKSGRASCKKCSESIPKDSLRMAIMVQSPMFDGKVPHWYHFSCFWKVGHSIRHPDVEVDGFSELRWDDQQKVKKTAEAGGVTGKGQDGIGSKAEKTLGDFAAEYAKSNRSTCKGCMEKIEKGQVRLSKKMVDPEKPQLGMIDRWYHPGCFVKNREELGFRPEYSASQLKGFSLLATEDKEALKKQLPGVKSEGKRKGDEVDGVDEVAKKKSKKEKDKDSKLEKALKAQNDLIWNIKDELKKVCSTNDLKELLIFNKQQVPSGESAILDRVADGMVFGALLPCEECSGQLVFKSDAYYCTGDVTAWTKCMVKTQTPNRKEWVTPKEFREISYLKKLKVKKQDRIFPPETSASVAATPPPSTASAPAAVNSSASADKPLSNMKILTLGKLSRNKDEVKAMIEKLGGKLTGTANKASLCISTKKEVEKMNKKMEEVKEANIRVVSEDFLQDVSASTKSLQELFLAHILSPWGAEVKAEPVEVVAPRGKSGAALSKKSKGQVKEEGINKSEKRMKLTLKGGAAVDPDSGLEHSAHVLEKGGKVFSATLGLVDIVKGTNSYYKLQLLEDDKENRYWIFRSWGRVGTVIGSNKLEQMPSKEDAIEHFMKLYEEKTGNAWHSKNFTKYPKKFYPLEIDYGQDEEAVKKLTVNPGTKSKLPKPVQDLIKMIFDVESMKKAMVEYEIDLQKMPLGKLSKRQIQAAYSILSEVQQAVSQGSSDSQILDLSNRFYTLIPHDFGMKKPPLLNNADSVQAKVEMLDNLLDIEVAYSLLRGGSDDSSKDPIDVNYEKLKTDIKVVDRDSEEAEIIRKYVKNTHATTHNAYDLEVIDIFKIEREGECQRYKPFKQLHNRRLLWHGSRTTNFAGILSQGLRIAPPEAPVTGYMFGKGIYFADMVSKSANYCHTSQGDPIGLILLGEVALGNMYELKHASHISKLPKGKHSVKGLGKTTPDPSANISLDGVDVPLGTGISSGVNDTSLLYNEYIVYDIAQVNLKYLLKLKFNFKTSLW

`Cc1ccc(N2C(=O)NC(=O)C(=Cc3cn(Cc4ccccc4)c4ccccc34)C2=O)cc1C` [A3, 5-((1-benzyl-1H-indol-3-yl)methylene)-1-(3,4-dimethylphenyl)pyrimidine-2,4,6(1H,3H,5H)-trione]: the “nuclear localization of CHFR” value at CHFR [1] was “depletion of nuclear CHFR and accumulation of cytoplasmic CHFR”. Moreover, the CHFR protein levels result is given as “complete disappearance of CHFR” at CHFR [2] (10 uM, 16 hrs, A549) and “initial increase in CHFR protein levels” on CHFR [2] (low concentrations of A3). Also, the “nature of interaction of A3 and docetaxel by combination index” value with A549 cells [3] (10 and 20 uM/nM concentrations) is “synergistic effects”. Also, the “cell viability, combination treated cells” value in the assay with A549 cells [3] (A3 plus docetaxel, 10 and 20 nM concentrations, 72 hours, p<0.01) was “statistically significantly decreased viability”. In the assay with A549 cells [3] (A3 with docetaxel, A549 cells, 72 hours, Chou-Talaley method), the “Combination index (CI)” value is listed as less than 1. Also, the “nuclear CHFR expression in xenografts” value was “restored to baseline levels” at CHFR [4] (24 hr time point) and “Significant suppression of nuclear CHFR expression” at CHFR [4] (after 4 hours). In addition, in the assay on CHFR-PARP1 interaction, the “interaction between CHFR-ΔR and PARP1” value was “dose dependent inhibition of the interaction between CHFR and PARP1”. Moreover, the “synergy between A3 and docetaxel, colony formation” value in the assay on A549 cells [5] (A549 after CHFR or PARP1 knockdown) is “not after CHFR or PARP1 knockdown”; in the assay on A549 cells [5] (A549 scrambled shRNA) it was “Synergy between A3 and docetaxel was maintained only in the A549 scramble cell line”. Also, the PARP1 auto-parylation entry at PARP1 was “no impact on PARP1 auto-parylation”. The tumor growth entry in the assay on H460 cell line (A3 alone compared to DMSO alone, I.P.) is given as “did not have a discernable effect on tumor growth”. In addition, the tumor size entry with H460 cell line (A3 given 4 hours prior to docetaxel, compared to docetaxel alone) was “significantly decreased tumor size”.

These data come from patent US9907797B2, “Combination therapies for overcoming resistance to mitotic agents during chemotherapy” (EMORY UNIVERSITY, priority 2014, dated 2018).
